Measurements from patent US20150366839A1, “Schisantherin A for the treatment of neurodegenerative diseases” (priority 2014, published 2015).

Experiments:
Type in all cases: cell-based, Human
Bax and Bcl-2 = Bax and Bcl-2 expression in MPP+-treated cells, Western blot
Method: (§1) After treatment, SH-SY5Y cells were washed three times with PBS and then lysis with RIPA lysis buffer containing 1% PMSF and 1% Protease Inhibitor Cocktail and incubated for 30 min on ice. Cell lysates were centrifuged at 12,500 g for 20 min at 4° C. The supernatant was separated and the amount of protein was determined using the BCA protein assay kit (Thermo Scientific Pierce, USA). Protein samples (30 μg) were separated by SDS-PAGE (10% (w/v)) polyacrylamide gel and then transferred to a polyvinylidene difluoride (PVDF) membrane (Bio-Rad, Hercules, Calif.). Subsequently, the membrane was blocked with 5% (v/v) non-fat milk in PBST (PBS containing 0.1% Tween 20) for 1 h at room temperature. The blots were incubated overnight at 4° C. with primary antibodies. After three washes with PBST, the membranes were incubated with horseradish peroxidase-conjugated secondary antibodies (1:2000) in PBST with 5% non-fat milk for 1 h at room temperature. After repeated washes, proteins were visualized with an ECL advanced western blotting detection kit. Photographs of protein bands were taken by a Molecular Imager ChemiDoc XRS (Bio-Rad, Hercules, Calif.). Quantitative assessment of protein bands was done with Gel Doc™ XRS equipped with Quantity One software.
To investigate whether SchiA has any effect on the expression of Bax and Bcl-2 proteins in MPP^+-induced SH-SY5Y cells, the expression levels of Bax and Bcl-2 were determined by Western blot analysis. SH-SY5Y cells were pretreated with 60 μM SchiA for 12 h before incubating with 2 mM MPP for 36 h. The expression of Bax or Bcl-2 in cell lysates was determined by Western blot analysis. […] In this study, β-actin was shown as an internal control. In FIGS. 15A-B, the Bax/Bcl-2 ratio are expressed as a percentage of that of the control group. ###P<0.005 versus control group; ***P<0.005 versus MPP group.

CREB = assay: p-CREB, CREB and Bcl-2 time course with SchiA alone, Western blot; conditions: 60 μM alone
Method: as §1, with “Photographs of protein bands were taken by a Molecular Imager ChemiDoc XRS (Bio-Rad, Hercules, Calif.).” left out
To investigate the effect of SchiA on the activation of the upstream targets of CREB in MPP^+-treated SH-SY5Y cells, the protein levels of p-CREB/CREB and were determined. […]

caspase-7 = assay: MPP+-induced caspase-7 activation, Western blot; conditions: 60 μM 12 h, then 2 mM MPP+ 36 h
Method: as §1, with “After repeated washes, proteins were visualized with an ECL advanced western blotting detection kit. Photographs of protein bands were taken by a Molecular Imager ChemiDoc XRS (Bio-Rad, Hercules, Calif.).” left out
The inventors performed Western blot to measure the expression of active-form of caspase-3 and caspase-7 in SH-SY5Y cells. […] Caspase-3 activity was expressed as units per mg protein. ###p<0.005 versus control group; *p<0.05, **p<0.01 and *** p<0.005 versus MPP+ group.

SH-SY5Y cells = assay: MTT neuroprotection against 6-OHDA-induced cytotoxicity
Method: Human neuroblastoma SH-SY5Y cells were purchased from the American Type Culture Collection (ATCC, Manassas, Va., USA) and cultured in a humidified 5% (v/v) CO2 atmosphere in 37° C. in Dulbecco's Modified Eagle Medium (DMEM) (Life technologies, NY, USA) supplemented with 10% FBS, 1% penicillin (100 U/mL) and streptomycin (100 μg/mL). All experiments were carried out 48 h after the cells were seeded.
Cell viability was determined by 3-(4,5-dimethyl-2-thiazolyl) 2,5-diphenyl-2H-tetrazolium bromide (MTT) assay (Sigma-Aldrich, USA). SH-SY5Y cells were seeded in 96-well plates (1×10^4 cells/well) for 48 h. SH-SY5Y cells were pre-treated with different concentrations of the five lignans (i.e. Schizandrin A, Schizandrin B, SC, Schizandrol A and SchiA) for 12 h and the cell viability was checked by MTT assay. Otherwise, SH-SY5Y cells were pre-treated with different concentrations of the five lignans for 12 h and then exposed to 400 μM 6-OHDA for 4 h. Cells were incubated at 37° C. for 4 h in 0.5 mg/mL MTT solution (prepared in serum free DMEM medium). The medium was then removed, and 100 μL of DMSO was added to each well to dissolve the violet-formazan crystals. The absorbance at 570 nm with 655 nm as a reference wavelength was measured by a multi-label counter (Wallac VICTOR3TMV, Perkin Elmer, Netherlands). Cell viability was expressed as a percentage of the value of the cells without 6-OHDA treatment. The LC50 and EC50 were calculated by GraphPad Prism V5.0 (GraphPad Software, Inc., San Diego, Calif.).
To further study the neuroprotective activities of the five lignans against 6-OHDA-induced cytotoxicity, cells were treated with various concentrations (3, 6, 12, 25, 50 and 100 μM) of the tested compounds for 12 h before exposed to 400 μM 6-OHDA for 4 h.

[1] = 60 μM 12 h, then 2 mM MPP+ 36 h

In the case of `COc1cc2c(c(OC)c1OC)-c1c(cc3c(c1OC)OCO3)C[C@H](C)[C@](C)(O)[C@H]2OC(=O)c1ccccc1` [SchiA, Schisantherin A], the “MPP+-induced down-regulation of Bcl-2 expression” value (Bax and Bcl-2; [1]) is reported as “could inhibit the down-regulation of Bcl-2 expression”, the “MPP+-induced increase of the Bax/Bcl-2 ratio” value (Bax and Bcl-2; [1]) is reported as “effectively prevented” and the Bax protein expression (Bax and Bcl-2; 60 μM, compared with control group) is reported as “did not changed significantly”. For the same molecule, the “Bcl-2 expression, compound alone” value (Bax and Bcl-2; 60 μM, without MPP+) was “increase the expression of Bcl-2”, the “phosphorylation of CREB compared with 0 h” value (CREB; after 3 h) was “about 1.5 fold” and the Bcl-2 expression (CREB; from 3 h to 12 h) was “induced”. The “MPP+-induced caspase-7 activation (active form)” value (caspase-7) was “significant decrease”, the “protection against 6-OHDA-induced damage (cell viability)” value (SH-SY5Y cells; 3, 6, 12, 25, 50 and 100 μM for 12 h before 400 μM 6-OHDA 4 h) was “protected SH-SY5Y cells against 6-OHDA-induced damage in a dose-dependent manner” and the EC50 (SH-SY5Y cells; pre-treated 12 h, then 400 μM 6-OHDA 4 h) was 8.1 µM.
